Test results taken from ChEMBL document CHEMBL1201862, “PubChem BioAssay data set” (2004).
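Where inhibition never reached the appropriate level, the endpoint shown equals the highest concentration tested. Otherwise, values were interpolated linearly from a five-concentration, 48-hour dose response in 96-well plates. Here, GI50 denotes the concentration required for 50% inhibition of growth.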 The source made the active and inactive calls. Cut-off read from the data, not from the text of the source: active = GI50 up to about 1.1 µM and inactive = higher.

Assays:
Assay in all cases: growth of human tumour cells (NCI), 48 h
[1] = system: OVCAR-8
[2] = system: SN12C
[3] = system: PC-3
[4] = system: A549
[5] = system: DU-145
[6] = system: UO-31
[7] = system: SNB-75
[8] = system: NCI-H460
[9] = system: KM12
[10] = system: HCC 2998
[11] = system: SK-MEL-5
[12] = system: OVCAR-3
[13] = system: M14
[14] = system: Hs-578T
[15] = system: NCI/ADR-RES
[16] = system: SNB-19
[17] = system: RXF 393
[18] = system: IGROV-1
[19] = system: BT-549
[20] = system: CCRF-CEM

Row | SMILES | GI50 [1] | GI50 [2] | GI50 [3] | GI50 [4] | GI50 [5] | GI50 [6] | GI50 [7] | GI50 [8] | GI50 [9] | GI50 [10] | GI50 [11] | GI50 [12] | GI50 [13] | GI50 [14] | GI50 [15] | GI50 [16] | GI50 [17] | GI50 [18] | GI50 [19] | GI50 [20]
1 | N#CCCC1(CCC#N)CCCCCCC(CCC#N)(CCC#N)C(=O)C1=O | > 100 µM (inactive) | 58.2 µM (inactive) | > 100 µM (inactive) | > 100 µM (inactive) | > 100 µM (inactive) | 3.08 µM (inactive) | > 100 µM (inactive) | > 100 µM (inactive) | > 100 µM (inactive) | 67.1 µM (inactive) | > 100 µM (inactive) | > 100 µM (inactive) | > 100 µM (inactive) | > 100 µM (inactive) | > 100 µM (inactive) | > 100 µM (inactive) | > 100 µM (inactive) | > 100 µM (inactive) | – | –
2 | O=C(c1cscc1CCc1ccccc1)c1cscc1CCc1ccccc1 | > 100 µM (inactive) | > 100 µM (inactive) | > 100 µM (inactive) | > 100 µM (inactive) | > 100 µM (inactive) | > 100 µM (inactive) | > 100 µM (inactive) | > 100 µM (inactive) | > 100 µM (inactive) | > 100 µM (inactive) | > 100 µM (inactive) | – | > 100 µM (inactive) | – | > 100 µM (inactive) | > 100 µM (inactive) | > 100 µM (inactive) | 31.6 µM (inactive) | > 100 µM (inactive) | > 100 µM (inactive)
3 | CCOC(=O)COc1cc(-c2ccccc2)nc2cc(F)ccc12 | > 100 µM (inactive) | > 100 µM (inactive) | > 100 µM (inactive) | > 100 µM (inactive) | > 100 µM (inactive) | – | > 100 µM (inactive) | – | > 100 µM (inactive) | > 100 µM (inactive) | > 100 µM (inactive) | > 100 µM (inactive) | > 100 µM (inactive) | – | > 100 µM (inactive) | – | > 100 µM (inactive) | > 100 µM (inactive) | > 100 µM (inactive) | 85.7 µM (inactive)
4 | O=C(Cn1c(-c2ccccc2)cc2ccccc21)N1CCOCC1 | > 100 µM (inactive) | > 100 µM (inactive) | 61.1 µM (inactive) | > 100 µM (inactive) | > 100 µM (inactive) | > 100 µM (inactive) | – | > 100 µM (inactive) | > 100 µM (inactive) | > 100 µM (inactive) | > 100 µM (inactive) | > 100 µM (inactive) | > 100 µM (inactive) | > 100 µM (inactive) | > 100 µM (inactive) | 79.3 µM (inactive) | > 100 µM (inactive) | > 100 µM (inactive) | – | > 100 µM (inactive)
5 | CC1(C)N=C(/C=N/O)C(C)(C)N1O | > 100 µM (inactive) | > 100 µM (inactive) | > 100 µM (inactive) | > 100 µM (inactive) | > 100 µM (inactive) | 81.3 µM (inactive) | > 100 µM (inactive) | > 100 µM (inactive) | > 100 µM (inactive) | > 100 µM (inactive) | > 100 µM (inactive) | > 100 µM (inactive) | > 100 µM (inactive) | > 100 µM (inactive) | > 100 µM (inactive) | 87.3 µM (inactive) | > 100 µM (inactive) | > 100 µM (inactive) | – | > 100 µM (inactive)
6 | CC1=NN(c2cccc(Cl)c2)C(=N/c2nc3ccccc3s2)/C1=C\c1cccs1 | 48.3 µM (inactive) | – | 32.1 µM (inactive) | – | 44.4 µM (inactive) | 60.8 µM (inactive) | 28 µM (inactive) | 35.6 µM (inactive) | 43.8 µM (inactive) | 35 µM (inactive) | 28.1 µM (inactive) | 13 µM (inactive) | 70.1 µM (inactive) | 26.1 µM (inactive) | 20.9 µM (inactive) | – | 51.3 µM (inactive) | 36 µM (inactive) | – | 19.6 µM (inactive)
7 | NCc1ccc(-c2ccc(CN)s2)s1 | 86.5 µM (inactive) | > 100 µM (inactive) | > 100 µM (inactive) | > 100 µM (inactive) | > 100 µM (inactive) | > 100 µM (inactive) | > 100 µM (inactive) | – | > 100 µM (inactive) | > 100 µM (inactive) | > 100 µM (inactive) | 42.3 µM (inactive) | > 100 µM (inactive) | – | 13.1 µM (inactive) | > 100 µM (inactive) | > 100 µM (inactive) | 10.9 µM (inactive) | – | > 100 µM (inactive)
8 | O=S(=O)(c1ccccc1)C1(CCC2OCCO2)C=CC2(CC1)OCCO2 (stereo not drawn) | > 100 µM (inactive) | > 100 µM (inactive) | > 10 µM (inactive) | > 100 µM (inactive) | > 100 µM (inactive) | > 100 µM (inactive) | > 100 µM (inactive) | > 100 µM (inactive) | – | > 100 µM (inactive) | > 100 µM (inactive) | > 100 µM (inactive) | > 100 µM (inactive) | – | > 100 µM (inactive) | > 100 µM (inactive) | – | > 100 µM (inactive) | > 100 µM (inactive) | > 100 µM (inactive)
9 | O=[N+]([O-])c1cccc2nccc(NCCN3CCOCC3)c12 | 20.1 µM (inactive) | 16.3 µM (inactive) | 9.64 µM (inactive) | 18.2 µM (inactive) | 41.7 µM (inactive) | 27.2 µM (inactive) | 16.5 µM (inactive) | 6.87 µM (inactive) | 10.5 µM (inactive) | 11.5 µM (inactive) | 10 µM (inactive) | 14.2 µM (inactive) | 15.9 µM (inactive) | 15.9 µM (inactive) | 29.4 µM (inactive) | 25.7 µM (inactive) | 11.6 µM (inactive) | 17.4 µM (inactive) | – | 5.55 µM (inactive)
10 | Cc1c(Cl)cccc1/N=N/C(=O)NNc1cccc(Cl)c1C | 13.5 µM (inactive) | 17.3 µM (inactive) | 13.3 µM (inactive) | 16.9 µM (inactive) | 14.4 µM (inactive) | 12.5 µM (inactive) | 18 µM (inactive) | 16.6 µM (inactive) | – | 17.3 µM (inactive) | 15.3 µM (inactive) | 17.6 µM (inactive) | 19.2 µM (inactive) | – | – | 17.9 µM (inactive) | – | 6.37 µM (inactive) | 14.1 µM (inactive) | 16.9 µM (inactive)
11 | CCNc1cc2c3c(c1)CCCN3CCC2 | 21.2 µM (inactive) | 2.87 µM (inactive) | 16.7 µM (inactive) | 17.9 µM (inactive) | 28.1 µM (inactive) | 41.9 µM (inactive) | 18.1 µM (inactive) | 15.1 µM (inactive) | 15.7 µM (inactive) | 33 µM (inactive) | 13.7 µM (inactive) | 2.32 µM (inactive) | 26.4 µM (inactive) | 25.6 µM (inactive) | 21 µM (inactive) | 16 µM (inactive) | 72.8 µM (inactive) | 15.6 µM (inactive) | – | 2.38 µM (inactive)
12 | O=C1/C(=C/c2ccc(O)cc2)NC(=S)N1CN1CCCCC1 | 53.5 µM (inactive) | 80 µM (inactive) | 53.2 µM (inactive) | > 100 µM (inactive) | 57.1 µM (inactive) | 71.4 µM (inactive) | > 100 µM (inactive) | – | > 100 µM (inactive) | – | 27.4 µM (inactive) | > 100 µM (inactive) | 59.2 µM (inactive) | 85.5 µM (inactive) | > 100 µM (inactive) | 89.5 µM (inactive) | – | 98.9 µM (inactive) | – | 23.8 µM (inactive)
13 | CN(C)c1cccc(NC2=NCCO2)c1 | 66.8 µM (inactive) | 52.5 µM (inactive) | 31 µM (inactive) | > 100 µM (inactive) | > 100 µM (inactive) | > 100 µM (inactive) | 41.2 µM (inactive) | 32.4 µM (inactive) | 40.5 µM (inactive) | 89.9 µM (inactive) | 43.6 µM (inactive) | 59.4 µM (inactive) | 37.5 µM (inactive) | 43.6 µM (inactive) | 39.7 µM (inactive) | 52.8 µM (inactive) | > 100 µM (inactive) | > 100 µM (inactive) | – | 33 µM (inactive)
14 | C[C@H]1[C@H](N2CCCC2)O[Si](C(C)(C)C)(C(C)(C)C)[C@@H]1C | > 100 µM (inactive) | > 100 µM (inactive) | 99.5 µM (inactive) | > 100 µM (inactive) | – | > 100 µM (inactive) | 74.6 µM (inactive) | – | > 100 µM (inactive) | > 100 µM (inactive) | > 100 µM (inactive) | > 100 µM (inactive) | > 100 µM (inactive) | – | > 100 µM (inactive) | 0.964 µM (active) | – | > 100 µM (inactive) | > 100 µM (inactive) | 36.2 µM (inactive)
15 | C/C1=C\CC[C@@]2(C)O[C@@H]2[C@H]2OC(=O)C(C)C2C[C@H]1O (stereo partly drawn) | > 100 µM (inactive) | > 100 µM (inactive) | > 100 µM (inactive) | > 100 µM (inactive) | > 100 µM (inactive) | > 100 µM (inactive) | > 100 µM (inactive) | > 100 µM (inactive) | > 100 µM (inactive) | > 100 µM (inactive) | 22.5 µM (inactive) | – | > 100 µM (inactive) | 10.3 µM (inactive) | > 100 µM (inactive) | > 100 µM (inactive) | > 100 µM (inactive) | > 100 µM (inactive) | – | > 100 µM (inactive)
16 | C=CN(C=C)C(=O)Cn1cc(-c2ccccc2)nn1 | > 100 µM (inactive) | > 100 µM (inactive) | > 100 µM (inactive) | > 100 µM (inactive) | > 100 µM (inactive) | – | > 100 µM (inactive) | > 100 µM (inactive) | > 100 µM (inactive) | > 100 µM (inactive) | > 100 µM (inactive) | – | > 100 µM (inactive) | – | > 100 µM (inactive) | > 100 µM (inactive) | – | > 100 µM (inactive) | > 100 µM (inactive) | > 100 µM (inactive)
